Assay results from patent publication US20220356174A1, “PYRIDIN-2-ONE COMPOUNDS USEFUL AS SMARCA2 ANTAGONISTS” (Epizyme, Inc., priority 2018, published 2022).

Key:
[1] = target: T1, FL-SMARCA2 (full-length human SMARCA2 isoform 1) (Homo sapiens, UniProt P51531); assay: SMARCA2 ATPase activity assay (ADP-Glo, chicken mononucleosome substrate); format: biochemical; conditions: ATPase assay, enzyme 5 nM, ATP 250 uM, chicken mononucleosome 10 nM, 30 min preincubation
T1 construct: FLAG tag (YKDDDDK) (C); made in house; host or cells: Sf21 insect cells (baculovirus, pFastBacI)

H358 cells = assay: High-throughput proliferation (HTP) assay for H358 cells (CellTiter-Glo, 7 days); format: cell-based; conditions: Homo sapiens, NCI-H358, 168 h, read-out: H358 SMARCA2 IC50
Method in brief: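 Cells were plated at 1,000 cells/well in RPMI 1640 + 10% HI-FBS + 1% pen/strep on pre-dispensed compound and incubated 7 days at 37 °C, 5% CO2. Viability was read as ATP luminescence with CellTiter-Glo after 30 min at RT. DMSO served as 0% and 10 µM doxorubicin as 100% inhibition for EC50/IC50.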

SMARCA2 = target: T2, SMARCA2 (Homo sapiens, UniProt P51531); assay: SMARCA2 FRET nucleosome remodeling activity assay; format: biochemical
T2 construct: FLAG tag (YKDDDDK) (C); made in house; host or cells: Sf21 insect cells (baculovirus, pFastBacI)
Protocol: The SMARCA2 remodeling assay was initiated by the addition of 2 uL of a nucleosome remodeling assay substrate and ATP mixture (final volume=10 uL). […] The assays were terminated after 15 minutes by the addition of 2 uL EDTA (final concentration of 25 mM). The SMARCA2 remodeling activity was determined by measuring the fluorescence ratio of the Cy3 and Cy5 labels ([…]). The remodeling of the nucleosome substrate causes an increase in the spacing between the Cy3 and Cy5 labels and therefore a reduction in FRET and an increase in Cy3/Cy5 fluorescence ratio.

T1 sequence (P51531 with tags, fused parts or gaps): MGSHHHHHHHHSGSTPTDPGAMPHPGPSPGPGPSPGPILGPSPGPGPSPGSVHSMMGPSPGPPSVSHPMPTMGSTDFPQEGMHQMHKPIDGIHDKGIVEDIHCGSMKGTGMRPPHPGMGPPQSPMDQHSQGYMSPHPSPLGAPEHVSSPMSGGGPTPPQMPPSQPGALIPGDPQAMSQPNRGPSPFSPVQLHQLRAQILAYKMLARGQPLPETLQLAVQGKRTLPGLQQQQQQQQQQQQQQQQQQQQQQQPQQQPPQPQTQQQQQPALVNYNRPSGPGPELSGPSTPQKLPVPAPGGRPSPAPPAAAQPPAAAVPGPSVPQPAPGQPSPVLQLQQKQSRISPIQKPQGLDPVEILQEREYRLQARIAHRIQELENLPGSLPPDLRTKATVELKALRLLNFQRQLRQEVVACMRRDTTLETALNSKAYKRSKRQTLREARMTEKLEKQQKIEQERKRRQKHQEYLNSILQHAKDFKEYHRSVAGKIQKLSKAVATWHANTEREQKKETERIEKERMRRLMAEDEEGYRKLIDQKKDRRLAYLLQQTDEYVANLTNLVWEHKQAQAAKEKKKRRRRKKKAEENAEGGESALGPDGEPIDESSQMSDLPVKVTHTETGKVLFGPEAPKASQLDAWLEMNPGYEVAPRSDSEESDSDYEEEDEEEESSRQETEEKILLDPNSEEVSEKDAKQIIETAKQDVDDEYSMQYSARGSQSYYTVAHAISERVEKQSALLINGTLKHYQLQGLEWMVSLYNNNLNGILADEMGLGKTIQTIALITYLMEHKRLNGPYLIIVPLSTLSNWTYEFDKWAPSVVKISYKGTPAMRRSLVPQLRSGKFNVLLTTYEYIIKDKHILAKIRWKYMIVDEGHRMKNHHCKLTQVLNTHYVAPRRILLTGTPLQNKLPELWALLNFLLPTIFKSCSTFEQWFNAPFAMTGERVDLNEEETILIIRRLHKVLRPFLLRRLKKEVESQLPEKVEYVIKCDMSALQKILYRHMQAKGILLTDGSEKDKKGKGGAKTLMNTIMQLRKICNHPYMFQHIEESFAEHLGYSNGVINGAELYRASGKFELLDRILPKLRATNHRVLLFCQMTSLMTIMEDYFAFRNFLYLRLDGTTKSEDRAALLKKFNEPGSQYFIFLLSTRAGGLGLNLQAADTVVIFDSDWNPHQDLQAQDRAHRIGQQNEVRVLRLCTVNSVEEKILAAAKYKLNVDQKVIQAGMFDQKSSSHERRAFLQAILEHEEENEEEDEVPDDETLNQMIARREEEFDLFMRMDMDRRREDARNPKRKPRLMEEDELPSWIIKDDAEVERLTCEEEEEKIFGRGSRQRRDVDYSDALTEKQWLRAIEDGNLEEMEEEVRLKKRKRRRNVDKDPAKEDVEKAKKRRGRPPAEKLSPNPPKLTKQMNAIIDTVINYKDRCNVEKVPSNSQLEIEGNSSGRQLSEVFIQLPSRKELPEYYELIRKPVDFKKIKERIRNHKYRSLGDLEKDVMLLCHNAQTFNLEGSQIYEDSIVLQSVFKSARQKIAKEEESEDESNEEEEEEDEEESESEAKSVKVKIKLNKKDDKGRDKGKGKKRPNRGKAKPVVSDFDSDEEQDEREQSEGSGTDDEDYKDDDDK
T2 sequence (P51531 with tags, fused parts or gaps): as above

## N#Cc1cc(C(=O)Nc2cc(F)c(=O)n(CC(F)F)c2)sc1C(F)(F)F [Compound 82c, 4-cyano-N-[1-(2,2-difluoroethyl)-5-fluoro-6-oxopyridin-3-yl]-5-(trifluoromethyl)thiophene-2-carboxamide]
[1]; Table 3c.1
  IC50: 9.88 nM
H358 cells
  IC50: > 10000 nM

## N#Cc1sc(C(=O)Nc2cc(F)c(=O)n(CCF)c2)cc1Cl [Compound 139]
SMARCA2
  IC50: 25.3 nM
[1]; Table 3.1
  IC50: 19.6 nM

## O=C(Nc1cc(F)c(=O)n(CC(F)F)c1)c1cc(Cl)c(C(F)(F)F)s1 [Compound 298, 4-Chloro-N-(1-(2,2-difluoroethyl)-5-fluoro-6-oxo-1,6-dihydropyridin-3-yl)-5-(trifluoromethyl)thiophene-2-carboxamide]
SMARCA2
  IC50: 47.1 nM
[1]; Table 3.1
  IC50: 24.1 nM
H358 cells
  IC50: > 10000 nM
